Counter-ions that a name gives are not always drawn.
Target: T1, ENaC (Homo sapiens, UniProt P37088+P51168+P51170)
T1 construct: host or cells: primary human bronchial epithelial cells (HBECs) differentiated at air-liquid interface
T1 sequence (P37088 1-669): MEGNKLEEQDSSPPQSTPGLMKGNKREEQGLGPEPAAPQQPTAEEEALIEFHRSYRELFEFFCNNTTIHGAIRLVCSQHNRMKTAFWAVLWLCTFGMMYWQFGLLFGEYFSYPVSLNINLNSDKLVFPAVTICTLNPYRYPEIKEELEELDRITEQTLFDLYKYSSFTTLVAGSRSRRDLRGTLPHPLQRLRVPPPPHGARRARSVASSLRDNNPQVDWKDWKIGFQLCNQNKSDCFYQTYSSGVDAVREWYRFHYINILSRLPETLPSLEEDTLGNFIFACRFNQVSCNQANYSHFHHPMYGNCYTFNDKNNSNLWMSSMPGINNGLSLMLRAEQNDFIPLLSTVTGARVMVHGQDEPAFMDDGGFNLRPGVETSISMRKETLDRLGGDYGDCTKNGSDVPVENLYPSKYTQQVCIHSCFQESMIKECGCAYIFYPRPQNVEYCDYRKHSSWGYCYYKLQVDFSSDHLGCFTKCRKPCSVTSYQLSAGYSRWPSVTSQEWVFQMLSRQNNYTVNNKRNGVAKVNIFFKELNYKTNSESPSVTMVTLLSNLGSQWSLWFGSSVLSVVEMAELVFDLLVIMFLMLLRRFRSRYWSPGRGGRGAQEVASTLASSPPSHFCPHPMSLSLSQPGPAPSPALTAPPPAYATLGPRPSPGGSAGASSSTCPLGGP
T1 sequence (P51168 1-640): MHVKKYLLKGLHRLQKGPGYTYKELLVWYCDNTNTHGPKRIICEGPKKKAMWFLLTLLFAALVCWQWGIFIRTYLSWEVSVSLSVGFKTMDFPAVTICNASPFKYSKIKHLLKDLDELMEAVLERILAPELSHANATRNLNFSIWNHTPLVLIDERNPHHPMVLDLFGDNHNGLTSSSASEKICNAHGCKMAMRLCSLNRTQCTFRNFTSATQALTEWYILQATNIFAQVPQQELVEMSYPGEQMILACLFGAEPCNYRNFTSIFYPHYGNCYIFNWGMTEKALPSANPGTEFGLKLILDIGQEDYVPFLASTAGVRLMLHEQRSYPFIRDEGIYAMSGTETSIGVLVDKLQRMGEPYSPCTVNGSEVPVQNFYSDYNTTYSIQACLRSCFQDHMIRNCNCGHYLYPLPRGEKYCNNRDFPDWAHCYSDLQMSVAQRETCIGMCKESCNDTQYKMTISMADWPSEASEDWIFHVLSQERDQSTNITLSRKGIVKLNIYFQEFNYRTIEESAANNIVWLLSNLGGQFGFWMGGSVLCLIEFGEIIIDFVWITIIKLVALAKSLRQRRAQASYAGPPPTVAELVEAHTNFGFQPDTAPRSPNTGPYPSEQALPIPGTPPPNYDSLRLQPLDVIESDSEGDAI
T1 sequence (P51170 1-649): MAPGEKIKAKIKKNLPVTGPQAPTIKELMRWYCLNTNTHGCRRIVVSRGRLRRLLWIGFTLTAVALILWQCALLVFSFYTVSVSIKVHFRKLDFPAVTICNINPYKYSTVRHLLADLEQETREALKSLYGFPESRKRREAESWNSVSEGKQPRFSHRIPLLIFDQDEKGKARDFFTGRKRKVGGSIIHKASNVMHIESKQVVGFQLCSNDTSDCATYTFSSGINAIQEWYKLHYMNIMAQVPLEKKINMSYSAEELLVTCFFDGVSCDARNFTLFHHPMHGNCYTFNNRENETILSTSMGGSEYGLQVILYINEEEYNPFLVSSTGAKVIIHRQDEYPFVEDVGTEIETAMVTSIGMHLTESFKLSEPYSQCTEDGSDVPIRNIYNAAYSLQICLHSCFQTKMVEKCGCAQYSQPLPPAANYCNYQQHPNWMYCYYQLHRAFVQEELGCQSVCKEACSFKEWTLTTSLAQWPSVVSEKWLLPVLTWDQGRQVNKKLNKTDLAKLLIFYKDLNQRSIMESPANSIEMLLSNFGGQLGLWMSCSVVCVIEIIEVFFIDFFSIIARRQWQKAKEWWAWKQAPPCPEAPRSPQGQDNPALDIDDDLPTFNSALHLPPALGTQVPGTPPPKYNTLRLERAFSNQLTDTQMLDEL
Experiment: Short circuit current assay to determine ENaC blocker potency in human bronchial epithelial cells
Format: cell-based
Details: 50% inhibition of total amiloride-sensitive ISC, apical addition, read-out: Averages.ENaC IC50 (nM) Avg
Experimental: Example 68—Short circuit current assay to determine ENaC blocker potency in human bronchial epithelial cells
Human bronchial epithelial cells (HBECs) (Lonza, UK) were cultured using a modification of the method described by Coote et al, (2008). Cells were seeded into plastic T-75 flasks and grown in Bronchial Epithelial Cell Growth Medium (BEGM) (Lonza, UK) supplemented with bovine pituitary extract (52 ng/mL), hydrocortisone (0.5 μg/mL), human recombinant Epidermal Growth Factor (0.5 ng/mL), epinephrine (0.5 ng/mL), transferrin (10 ng/mL), insulin (5 ng/mL), retinoic acid (0.1 ng/mL), triiodothyronine (6.5 ng/mL), gentamycin (50 μg/mL) and amphotericin-B (50 ng/mL). Medium was changed every 48 hours until cells were 90% confluent. Cells were then passaged and seeded (8.25×10^5 cells/insert) onto polycarbonate Snapwell™ inserts (Costar, UK) in differentiation media containing 50% DMEM in BGEM with the same supplements as above but without triiodothyronine and a final retinoic acid concentration of 50 nM (all-trans retinoic acid; Sigma-Aldrich, UK). Cells were maintained submerged for the first 7 days in culture after which time they were exposed to an apical air interface for the remainder of the culture period. From the first day of establishment of an ALI, HBEC were fed with a DMEM:HAMS F-12 (1:1) media containing 2% Ultroser G (Pall BioSepra, France) with gentamycin (50 μg/mL) and amphotericin B (50 ng/mL). Cells were used for short-circuit current assay between days 14-21 after the establishment of the ALI. At all stages of culture, cells were maintained at 37° C. in 5% CO2 in an air incubator.
Short-Circuit Current (ISC) Measurements
Snapwell inserts were mounted in Costar Vertical Diffusion Chambers (Costar, UK) and were bathed with continuously gassed Ringer solution (5% CO2 in O2; pH 7.4) maintained at 37° C. containing (in mM): 120 NaCl, 25 NaHCO3, 3.3 KH2PO4, 0.8 K2HPO4, 1.2 CaCl2, 1.2 MgCl2 and 10 glucose. The solution osmolarity was always between 280-300 mOsm/kg H2O for all physiological salt solutions used. Cells were voltage clamped to 0 mV (model EVC4000, WPI). Transepithelial resistance (RT) was measured by applying a 2 mV pulse at 30 s intervals and calculating RT by Ohm's law. Data were recorded using a PowerLab workstation (ADlnstruments, UK).
ENaC blocker compounds were added to the apical chamber from a 1000-fold stock solution (prepared in DMSO) to achieve a cumulative concentration response in terms of the inhibition of the basal ISC. At the completion of the concentration response, a supra-maximal concentration of amiloride (10 μM) was added. The concentration of test compound that induced a 50% inhibition of the total amiloride-sensitive ISC (IC50) was calculated using GraphPad Prism v6.05. The results are presented in Table 2, from which it can be seen that the compounds of the present invention have ENaC inhibiting activity.

Row | IC50 [nM] | SMILES
1 | 33 | CCn1c(CNC(=O)c2nc3cc[nH]c3nc2N)[n+](C)c2ccccc21 [Example 1, 2-[({3-amino-5H-pyrrolo[2,3-b]pyrazin-2-yl}formamido)methyl]-1-ethyl-3-methyl-1H-1,3-benzodiazol-3-ium formate]
2 | 43 | CCn1c(CNC(=O)c2nc3cc[nH]c3nc2N)[n+](C)c2ccc(F)cc21 [Example 2, 2-[({3-amino-5H-pyrrolo[2,3-b]pyrazin-2-yl}formamido)methyl]-1-ethyl-6-fluoro-3-methyl-1H-1,3-benzodiazol-3-ium chloride]
3 | 19 | CCn1c(CNC(=O)c2nc3cc[nH]c3nc2N)[n+](C)c2ccc(Cl)cc21 [Example 3, 2-[({3-amino-5H-pyrrolo[2,3-b]pyrazin-2-yl}formamido)methyl]-6-chloro-1-ethyl-3-methyl-1H-1,3-benzodiazol-3-ium formate]
4 | 8 | CCn1c(CNC(=O)c2nc3cc[nH]c3nc2N)[n+](C)c2ccc(OC)cc21 [Example 4, 2-[({3-amino-5H-pyrrolo[2,3-b]pyrazin-2-yl}formamido)methyl]-1-ethyl-6-methoxy-3-methyl-1H-1,3-benzodiazol-3-ium formate]
5 | 9 | CCn1c(CNC(=O)c2nc3cc[nH]c3nc2N)[n+](C)c2ccc(C(F)(F)F)cc21 [Example 5, 2-[({3-amino-5H-pyrrolo[2,3-b]pyrazin-2-yl}formamido)methyl]-1-ethyl-3-methyl-6-(trifluoromethyl)-1H-1,3-benzodiazol-3-ium formate]
6 | 5 | CCn1c(CNC(=O)c2nc3cc[nH]c3nc2N)[n+](C)c2ccc(OC(F)(F)F)cc21 [Example 6, 2-[({3-amino-5H-pyrrolo[2,3-b]pyrazin-2-yl}formamido)methyl]-1-ethyl-3-methyl-6-(trifluoromethoxy)-1H-1,3-benzodiazol-3-ium formate]
7 | 3 | CCn1c(CNC(=O)c2nc3cc[nH]c3nc2N)[n+](CC)c2ccc(OC)cc21 [Example 7, 2-[({3-amino-5H-pyrrolo[2,3-b]pyrazin-2-yl}formamido)methyl]-1,3-diethyl-6-methoxy-1H-1,3-benzodiazol-3-ium formate]
8 | 9 | CCn1c(CNC(=O)c2nc3cc[nH]c3nc2N)[n+](Cc2ccccc2)c2ccc(OC)cc21 [Example 8, 2-[({3-amino-5H-pyrrolo[2,3-b]pyrazin-2-yl}formamido)methyl]-3-benzyl-1-ethyl-6-methoxy-1H-1,3-benzodiazol-3-ium formate]
9 | 48 | CCn1c(CNC(=O)c2nc3cc[nH]c3nc2N)[n+](CC(=O)OC)c2ccc(OC)cc21 [Example 9, 2-[({3-amino-5H-pyrrolo[2,3-b]pyrazin-2-yl}formamido)methyl]-1-ethyl-6-methoxy-3-(2-methoxy-2-oxoethyl)-1H-1,3-benzodiazol-3-ium bromide]
10 | 199 | CCn1c(CNC(=O)c2nc3cc[nH]c3nc2N)[n+](CC(=O)O)c2ccc(OC)cc21 [Example 10, 2-[({3-amino-5H-pyrrolo[2,3-b]pyrazin-2-yl}formamido)methyl]-3-(carboxylatomethyl)-1-ethyl-6-methoxy-1H-1,3-benzodiazol-3-ium]
11 | 22 | CCn1c(CNC(=O)c2nc3cc[nH]c3nc2N)[n+](CC(N)=O)c2ccc(OC)cc21 [Example 11, 2-[({3-amino-5H-pyrrolo[2,3-b]pyrazin-2-yl}formamido)methyl]-3-(carbamoylmethyl)-1-ethyl-6-methoxy-1H-1,3-benzodiazol-3-ium bromide]
12 | 5 | CCn1c(CNC(=O)c2nc3cc[nH]c3nc2N)[n+](CCSC)c2ccc(OC)cc21 [Example 12, 2-[({3-amino-5H-pyrrolo[2,3-b]pyrazin-2-yl}formamido)methyl]-1-ethyl-6-methoxy-3-[2-(methylsulfanyl)ethyl]-1H-1,3-benzodiazol-3-ium iodide]
13 | 4 | CCn1c(CNC(=O)c2nc3cc[nH]c3nc2N)[n+](CCO)c2ccc(OC)cc21 [Example 13, 2-[({3-amino-5H-pyrrolo[2,3-b]pyrazin-2-yl}formamido)methyl]-1-ethyl-3-(2-hydroxyethyl)-6-methoxy-1H-1,3-benzodiazol-3-ium]
14 | 11 | CCn1c(CNC(=O)c2nc3cc[nH]c3nc2N)[n+](CCOCCOCCO)c2ccc(OC)cc21 [Example 14, 2-[({3-amino-5H-pyrrolo[2,3-b]pyrazin-2-yl}formamido)methyl]-1-ethyl-3-{2-[2-(2-hydroxyethoxy)ethoxy]ethyl}-6-methoxy-1H-1,3-benzodiazol-3-ium]
15 | 198 | C[n+]1c(CNC(=O)c2nc3cc[nH]c3nc2N)n(Cc2ccccc2)c2ccccc21 [Example 15, 2-[({3-amino-5H-pyrrolo[2,3-b]pyrazin-2-yl}formamido)methyl]-1-benzyl-3-methyl-1H-1,3-benzodiazol-3-ium]
16 | 10 | CCn1c(CNC(=O)c2nc3cc[nH]c3nc2N)[n+](Cc2ccccc2)c2ccc(Cl)cc21 [Example 16, 2-[({3-amino-5H-pyrrolo[2,3-b]pyrazin-2-yl}formamido)methyl]-3-benzyl-6-chloro-1-ethyl-1H-1,3-benzodiazol-3-ium]
